The source of these data is article PMC7552967, “Anti-Melanoma Activities of Artemisone and Prenylated Amino-Artemisinins in Combination With Known Anticancer Drugs” (Frontiers in Pharmacology, 2020).

The subject of one assay is HEK293 cells. The assay is described as follows: MTT cytotoxicity assay, HEK293. The conditions noted are these: Homo sapiens, 24 h exposure, mean ± SD, three biological replicates. The class given is cell-based. The source says: The human cell lines TK10 (human kidney adenocarcinoma), UACC62 (human melanoma) and MCF7 (human breast adenocarcinoma) were obtained from the National Cancer Institute (NCI) as part of a panel widely studied for drug screening and molecular target identification. Melanoma (A375) and human embryonic kidney (HEK293) were acquired from the American Type Culture Collection; ATCC® CRL-1619™ and ATCC® CRL-1573™ respectively. The nontumorigenic human immortalized keratinocyte (HaCaT) cells were a kind donation by the School of Anatomical Sciences, Faculty of Health Sciences, University of the Witwatersrand, South Africa. HaCaT cells were chosen as the nonmalignant control due to their ease of propagation, near normal phenotype and general use as an A375 control ([Dwivedi et al., 2015]; [Lewies et al., 2018]). The A375 cell line is a […] cells line with the BRAF mutation frequently used for in vitro drug screening assays for anti-melanoma drugs ([Couto et al., 2019]). All reagents were of analytical grade and were obtained from Merck (Darmstadt, Germany) unless stated otherwise. Cells were cultured in Dulbecco’s modified essential medium (DMEM; Hyclone, GE healthcare, South Logan, UT, USA) containing 10% fetal bovine serum (FBS), 1% penicillin/streptomycin, 1% 200 mM L-Glutamine and 1% nonessential amino acids (Lonza, Basel, Switzerland) at 37°C in a humidified atmosphere of 5% CO2. […]
The growth inhibitory effects of the compounds were tested in the 3-cell line panel consisting of TK10 (renal), UACC62 (melanoma) and MCF7 (breast) cancer cells by Sulforhodamine B (SRB) assay. In addition, activity was also evaluated against HEK293 cells with the 3-(4,5-dimethylthiazol-2-yl)-2,5-diphenyl tetrazolium bromide (MTT) assay ([Mosmann, 1983]). […] The results were expressed as half maximal inhibitory concentrations (IC50) as described before ([Lewies et al., 2018]). […] After incubation, cell viability was determined using a microplate reader (BioTek®, Vermont, USA) at an excitation wavelength of 560 nm and emission wavelength of 630 nm with DMSO measured as a blank. Cell viability was expressed as a percentage relative to the untreated control, which is assumed to be 100% viable. […] Using the MTT assay data, IC50 values were calculated using GraphPad Prism 8. […] The curve was fitted using the log(inhibitor) vs. response function and the IC50 values calculated ([Lewies et al., 2018]). A crude therapeutic index (fold decrease in IC50 value) was calculated as the IC50 of the noncancerous cell-line/IC50 of the cancerous cell line. […] Drug interactions were evaluated for synergism, additivity or antagonism using multiple drug effect analysis, based on the median-principle. Cells were treated with the drug combinations for 24 h and analyzed. […]

A further assay concerns A375 melanoma cells. The assay can be described thus: MTT cell viability assay, A375. The assay is classed as cell-based, human. The conditions noted are these: for IC50: Homo sapiens, A-375, MTT, 24 h, combinations 1:1, mean ± SD; for Therapeutic index (TI): IC50 of HaCat cells/IC50 of A375 cells. The source says: The human cell lines TK10 (human kidney adenocarcinoma), UACC62 (human melanoma) and MCF7 (human breast adenocarcinoma) were obtained from the National Cancer Institute (NCI) as part of a panel widely studied for drug screening and molecular target identification. […] The nontumorigenic human immortalized keratinocyte (HaCaT) cells were a kind donation by the School of Anatomical Sciences, Faculty of Health Sciences, University of the Witwatersrand, South Africa. […] All reagents were of analytical grade and were obtained from Merck (Darmstadt, Germany) unless stated otherwise. Cells were cultured in Dulbecco’s modified essential medium (DMEM; Hyclone, GE healthcare, South Logan, UT, USA) containing 10% fetal bovine serum (FBS), 1% penicillin/streptomycin, 1% 200 mM L-Glutamine and 1% nonessential amino acids (Lonza, Basel, Switzerland) at 37°C in a humidified atmosphere of 5% CO2. Stock solutions of the compounds were prepared in dimethyl sulfoxide (DMSO). All subsequent dilutions were prepared in serum-free DMEM and vehicle controls were included in all experiments
The growth inhibitory effects of the compounds were tested in the 3-cell line panel consisting of TK10 (renal), UACC62 (melanoma) and MCF7 (breast) cancer cells by Sulforhodamine B (SRB) assay. […] Compounds prepared in DMSO were tested at 0.01–100 µM serial dilutions to establish initial inhibitory concentrations. […] After 24 h exposure to compounds, growth medium was removed, cells rinsed twice with 1 ml of phosphate buffered saline (PBS) and 100 µl fresh serum-free medium containing 5 mg/ml MTT solution was added MTT solution was prepared fresh for each analysis). Cells were then incubated for 4 h at 37°C, after which the MTT was removed and substituted with 100 µl dimethyl sulfoxide (DMSO) to dissolve the formazan crystals for an h at 37°C. After incubation, cell viability was determined using a microplate reader (BioTek®, Vermont, USA) at an excitation wavelength of 560 nm and emission wavelength of 630 nm with DMSO measured as a blank. Cell viability was expressed as a percentage relative to the untreated control, which is assumed to be 100% viable. For a positive control, cells were treated with 0.01% Triton-X 100 (Sigma-Aldrich, St Louis, MO, USA) for a period of 4 h. Using the MTT assay data, IC50 values were calculated using GraphPad Prism 8. Data were normalized to the positive (alleged to be 0% viable) and negative controls (presumed to be 100% viable), followed by the log-transformation of the concentration values. […] A crude therapeutic index (fold decrease in IC50 value) was calculated as the IC50 of the noncancerous cell-line/IC50 of the cancerous cell line. […] Drug interactions were evaluated for synergism, additivity or antagonism using multiple drug effect analysis, based on the median-principle. Cells were treated with the drug combinations for 24 h and analyzed. The CompuSyn (ComboSyn, Inc. NJ, USA) software package was used to generate the median-effect plots and combination index plots. […] All experiments were performed at least in triplicate and repeated independently.
Next, the quantitative colorimetric MTT assay was used to determine in vitro cell viability with A375 (melanoma) and HaCat (nonmalignant keratinocyte) cells. […] The IC50 was used to determine a crude therapeutic index (fold increase or decline in IC50).

On to `C[C@@H]1CC[C@H]2[C@@H](C)C(=O)O[C@@H]3O[C@@]4(C)CC[C@@H]1[C@]32OO4` [Artemisinin 2, artemisinin], for which the half-maximal inhibitory concentration (IC50) with HEK293 cells was found to be 120.7 ± 1.07 µM; in the assay on A375 melanoma cells it was 150 ± 3.61 µM. For the same molecule, the “Therapeutic index (TI)” value with A375 melanoma cells was determined as 2.5.
The matching figures for `C[C@H]1[C@H](N2CCS(=O)(=O)CC2)O[C@@H]2O[C@@]3(C)CC[C@H]4[C@H](C)CC[C@@H]1[C@@]24OO3` [Artemisone 4, artemisone]: 86.7 ± 1.09 µM, 95.7 ± 2.31 µM and 2.8.
Consider `CC(C)=CCC/C(C)=C/CC/C(C)=C/CN1CCN([C@@H]2O[C@@H]3O[C@@]4(C)CC[C@H]5[C@H](C)CC[C@@H]([C@H]2C)[C@@]35OO4)CC1` [Farnesylpiperazine-DHA 7, farnesylpiperazine-DHA], for which the 50% inhibitory concentration (IC50) in the assay on HEK293 cells stood at 35.5 ± 1.09 µM. Further, in the assay on A375 melanoma cells, the IC50 was determined as 32.6 ± 1.08 µM and the “Therapeutic index (TI)” value was determined as 2.1.
The matching figures for `CC(C)=CCC/C(C)=C/CN1CCN([C@@H]2O[C@@H]3O[C@@]4(C)CC[C@H]5[C@H](C)CC[C@@H]([C@H]2C)[C@@]35OO4)CC1` [Geranylpiperazine-DHA 6, geranylpiperazine-DHA]: 24.3 ± 1.15 µM, 46.9 ± 0.89 µM and 2.2.
